Assay results from US7062219B2, “Protein fragment complementation assays for high-throughput and high-content screening” (Odyssey Thera Inc., priority 1997, dated 2006).

What was measured:
Format in all cases: cell-based
[1] = tested on: p53/p53 homo-dimerization; assay: Renilla luciferase PCA (RLuc PCA) for p53/p53 in HEK293T cells
Excerpt: Either the wild type RLuc F1 or the mutant RLuc F1(C124A) can be used in combination with the RLuc F2 fragment provided above to generate luminescent PCAs. The following examples below show the results obtained with the wild-type RLuc fragments. The F1 and F2 fragments described above were created by oligonucleotide synthesis (Blue Heron Biotechnology, Bothell, Wash.) and were designated RL[1] (aa 1–160) and RL[2] (aa 161–311). […]
STAT1/PDK2 served as a negative control PCA. […] Isolated DNAs were quantitated and then normalized to a concentration of 50 ng/microliter.
The luciferase PCA was constructed to quantify the homo-dimerization of p53 (p53/p53 PCA) and compared to a negative control RLuc PCA (Pdk2/STAT1). […] For each sample, the luminescence released was captured over 10 seconds, with a 2 second delay after addition of substrate to the sample. Data are reported as relative luminescence units (RLU), and have not been normalized to protein content.
For each condition tested, cells were transfected in quadruplicate with 0.1 microgram of total DNA (50 ng each of RL[1]-p53 and RL[2]-p53) using Fugene transfection reagent as above. […] Drug was removed by washing two times with PBS, and cell lysates were prepared as described above prior to performing a Renilla Luciferase luminescence detection assay (Promega). […]

Pdk2:STAT1 = assay: negative control RLuc PCA (Pdk2/STAT1) in HEK293T cells; settings: 500 nM CPT for 18 hours
Excerpt: STAT1/PDK2 served as a negative control PCA. The full coding sequences for p53, STAT1 and PDK2 were amplified by PCR from sequence verified full-length cDNAs. The resulting PCR products were desalted, digested with appropriate restriction enzymes to allow directional cloning, and fused in-frame to either the 5′ or 3′-end of RL[1], RL[2], RL[3] or RL[4] through a linker encoding a flexible 10 amino acid peptide (GGGGS)2 (SEQ ID No.1) to assure that the orientation/arrangement of the fusions in space is optimal to bring the fluorescent protein fragments into close proximity. DNAs from recombinant constructs were isolated using Qiagen Turbo BioRobot Prep kits (Qiagen, Chatsworth, Calif.) on a Beckman FX robotic workstation (Beckman Coulter, Fullerton, Calif.). Isolated DNAs were quantitated and then normalized to a concentration of 50 ng/microliter.
The luciferase PCA was constructed to quantify the homo-dimerization of p53 (p53/p53 PCA) and compared to a negative control RLuc PCA (Pdk2/STAT1). […] For each sample, the luminescence released was captured over 10 seconds, with a 2 second delay after addition of substrate to the sample. Data are reported as relative luminescence units (RLU), and have not been normalized to protein content. […]

PKB/hFt1 complex = assay: GFP PCA for PKB/hFt1 in COS-1 cells, fluorometric analysis and microscopy; settings: 10% serum or 20 μg/ml insulin, 30 min
Excerpt: (§1) DNA Constructs. The full-length cDNAs encoding PKB, PDK1, PKCalpha, the catalytic subunit of PKA (PKAc), GSK3beta, BAD, Caspase 9 and FKHRL1 were amplified by PCR and subcloned into the eukaryotic expression vector pMT3 [Kaufman, 1989 #23], 5′ of the F[2] fragment of GFP. GFP[1] corresponds to amino acids 1 to 158 and GFP[2] to amino acids 159 to 239 of GFP and was amplified by PCR from pCMS-EGFP (Clontech). The PKB-GFP[2] fusion was also inserted in a pMT3 vector where the ampicillin resistance gene has been replaced by a chloramphenicol resistance gene (pMT3-chloramphenicol) for the purpose of the cDNA library screen. In all cases, a 10 amino acid flexible linker consisting of (GGGGS)2 (SEQ ID No.1) was inserted between the cDNA and the GFP fragments to assure that the orientation/arrangement of the fusions in space is optimal to bring the protein fragments into close proximity. […]
(§2) COS-1 cells were split in 12-well plates 24 h before transfection. […] The relative amount of reconstituted GFP, a measure of the interaction between the fused protein partners, was detected by fluorometric analysis. […] The background fluorescence intensity corresponding to non-transfected cells was subtracted from the fluorescence intensities of all of the samples. The sub-cellular location of the hFt1/PKB and hFt1/PDK1 protein-protein complexes was also determined by fluorescence microscopy in live cells. […]

PDK1/hFt1 complex = assay: GFP PCA for PDK1/hFt1 in COS-1 cells, fluorometric analysis and microscopy; settings: 10% serum or 20 μg/ml insulin, 30 min
Excerpt: as §1, §2

| Compound | increase in luminescence relative to vehicle (0.1% DMSO) ([1]; 500 nM CPT for 18 hours, HEK293T lysates) [%] | effect on the p53/p53 interaction in the RLuc PCA (in words) ([1]; FIG. 3(B)) | effect on luminescence of the negative control PCA (Pdk2:STAT1) | amount of the PKB/hFt1 complexes (fluorescence) (PKB/hFt1 complex) | subcellular location of PKB/hFt1 complexes (PKB/hFt1 complex) | amount of the PDK1/hFt1 complexes (fluorescence) (PDK1/hFt1 complex) | subcellular location of PDK1/hFt1 complexes (PDK1/hFt1 complex) |
| --- | --- | --- | --- | --- | --- | --- | --- |
| CC[C@@]1(O)C(=O)OCc2c1cc1n(c2=O)Cc2cc3ccccc3nc2-1 [camptothecin] | 27 | induction | no effect |  |  |  |  |
| insulin: insulin (Roche Diagnostics), pathway stimulus |  |  |  | increase | redistribution of the protein-protein complexes from the cytosol to the membrane | increase | redistribution of the protein-protein complexes from the cytosol to the membrane |
